The values that follow come from patent publication US9611246B2, “Compositions, apparatus, systems, and methods for resolving electronic excited states” (HALLSTAR INNOVATIONS CORP., priority 2012, dated 2017).

The experiment is described as follows: Singlet oxygen phosphorescence from protoporphyrin IX dimethyl ester in air saturated CDCl3, 532 nm. It is filed as physicochemical. Particulars: MePPIX 25 μM. How it is done:
Singlet oxygen phosphorescence experiments were performed to investigate if the large differences in triplet quenching rate constants have an impact on the observed singlet oxygen yields. The dimethyl ester derivative of PPIX (MePPIX, Formula IV(c)) was selected as sensitizer, because of better solubility in a solvent with long singlet oxygen lifetime (CDCl3).
The excited state properties of protoporphyrin IX should not be effected by the methyl ester functionality. Air saturated CDCl3 of MePPIX were excited with a pulsed Nd-YAG laser with visible light at 532 nm, where the stabilizers are mostly transparent. […] The lack of singlet oxygen suppression is consistent with the lack of observable quenching of singlet or triplet excited states of PPIX by alkoxy crylene.

Regarding `COC(=O)C(C#N)=C1c2ccccc2C(=O)c2ccccc21` [Formula II(a)(1)], the “suppression of singlet oxygen generation” value is given as “largest suppression”.
